Several values for one entry are separate records, joined by “and”; a condition that tells them apart may be missing. Equal values may be shown once. Inconclusive results and toxic doses are left out. Rule for the calls: active = survival T/C of 150% or more; inactive = T/C below 125% in these data.
System: P388 leukemia ip, CD2F1 mice, survival T/C
Test: NCI In Vivo Anticancer Drug Screen. Data for tumor model P388 Leukemia (intraperitoneal) in CD2F1 (CDF1) mice
Details: endpoint: median survival time, higher = longer survival
Method in brief: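 Mice carrying the transplanted tumor received test compound or vehicle. Survival was recorded in each group, and the value is the treated-group measurement divided by that of the vehicle-treated control group.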

[1] = dose: 60.0 mg/kg/injection, schedule: Q01DX005 (ip), vehicle: saline with Tween-80
[2] = dose: 12.5 mg/kg/injection, schedule: Q01DX005 (ip), vehicle: Klucel (hydroxypropylcellulose) (HPC)
[3] = dose: 25.0 mg/kg/injection, schedule: Q01DX005 (ip), vehicle: Klucel (hydroxypropylcellulose) (HPC)
[4] = dose: 15.0 mg/kg/injection, schedule: Q01DX005 (ip), vehicle: saline with Tween-80
[5] = dose: 30.0 mg/kg/injection, schedule: Q01DX005 (ip), vehicle: saline with Tween-80
[6] = dose: 50.0 mg/kg/injection, schedule: Q01DX005 (ip), vehicle: Klucel (hydroxypropylcellulose) (HPC)
[7] = dose: 60.0 mg/kg/injection, schedule: Q01DX005 (ip), vehicle: saline
[8] = dose: 120.0 mg/kg/injection, schedule: Q01DX005 (ip), vehicle: saline
[9] = dose: 100.0 mg/kg/injection, schedule: Q01DX009 (ip), vehicle: saline
[10] = dose: 200.0 mg/kg/injection, schedule: Q01DX009 (ip), vehicle: saline

Measured: T/C

O=[N+]([O-])c1oc2ccc3ccccc3c2c1CCO
inactive: [1] 97 % of control | dose: 120.0 mg/kg/injection, schedule: Q01DX005 (ip), vehicle: saline with Tween-80 110 % of control | dose: 240.0 mg/kg/injection, schedule: Q01DX005 (ip), vehicle: saline with Tween-80 117 % of control

Cc1[nH]c(N)nc(=S)c1CCCNc1ccc(C(=O)NC(CCC(=O)O)C(=O)O)cc1 (centres undefined)
inactive: dose: 6.25 mg/kg/injection, schedule: Q01DX005 (ip), vehicle: Klucel (hydroxypropylcellulose) (HPC) 101 % of control | [2] 99 % of control | [3] 98 % of control

O=C(CCCl)Oc1ccc(Br)cc1
inactive: dose: 100.0 mg/kg/injection, schedule: Q01DX009 (ip), vehicle: saline sonified 111 % of control | dose: 200.0 mg/kg/injection, schedule: Q01DX009 (ip), vehicle: saline sonified 100 % of control | dose: 400.0 mg/kg/injection, schedule: Q01DX009 (ip), vehicle: saline sonified 94 % of control

O=C(c1ccccc1)c1c(CO[N+](=O)[O-])n([O-])c2ccccc2[n+]1=O
inactive: [4] 105 % of control | [5] 109 % of control | [1] 104 % of control and 109 % of control

CCOC(=O)c1ccc(N2C(=O)OC(C)(C)C2=O)cc1
inactive: [6] 103 % of control | dose: 100.0 mg/kg/injection, schedule: Q01DX005 (ip), vehicle: Klucel (hydroxypropylcellulose) (HPC) 97 % of control | dose: 200.0 mg/kg/injection, schedule: Q01DX005 (ip), vehicle: Klucel (hydroxypropylcellulose) (HPC) 101 % of control

CC(C)N1CC(=O)N2CSCC2C1=O (centres undefined)
inactive: [7] 105 % of control | [8] 105 % of control | dose: 240.0 mg/kg/injection, schedule: Q01DX005 (ip), vehicle: saline 105 % of control

Oc1c(O)c(Br)c(Br)c(Br)c1Br
inactive: [9] 107 % of control and 95 % of control | [10] 111 % of control

CC(O)C(=O)N(C)CCCO (centres undefined)
inactive: dose: 50.0 mg/kg/injection, schedule: Q01DX005 (ip), vehicle: saline 92 % of control | dose: 100.0 mg/kg/injection, schedule: Q01DX005 (ip), vehicle: saline 101 % of control | dose: 200.0 mg/kg/injection, schedule: Q01DX005 (ip), vehicle: saline 100 % of control

NS(=O)(=O)c1ccc(Nc2c3ccccc3nc3ncccc23)cc1
inactive: dose: 7.5 mg/kg/injection, schedule: Q01DX005 (ip), vehicle: saline with Tween-80 92 % of control | [4] 91 % of control | [5] 92 % of control

COC1/C=C\C=C(/C)C(=O)NC2=CC(=O)C(NCCCl)=C(CC(C)CC(OC)C(O)C(C)/C=C(/C)C1OC(N)=O)C2=O (centres undefined)
inactive: dose: 1.5 mg/kg/injection, schedule: Q01DX009 (ip), vehicle: DMSO 107 % of control | dose: 3.0 mg/kg/injection, schedule: Q01DX009 (ip), vehicle: DMSO 108 % of control | dose: 3.12 mg/kg/injection, schedule: Q04DX002 (ip), vehicle: saline with Tween-80 115 % of control | dose: 5.0 mg/kg/injection, schedule: Q04DX002 (ip), vehicle: saline with Tween-80 111 % of control | dose: 6.0 mg/kg/injection, schedule: Q01DX009 (ip), vehicle: DMSO 111 % of control | dose: 6.25 mg/kg/injection, schedule: Q04DX002 (ip), vehicle: saline with Tween-80 123 % of control | dose: 12.0 mg/kg/injection, schedule: Q01DX009 (ip), vehicle: DMSO 117 % of control | dose: 12.5 mg/kg/injection, schedule: Q04DX002 (ip), vehicle: saline with Tween-80 119 % of control | dose: 20.0 mg/kg/injection, schedule: Q04DX002 (ip), vehicle: saline with Tween-80 122 % of control

COc1ccc(/C=C/c2nnc(N)o2)cc1
inactive: dose: 50.0 mg/kg/injection, schedule: Q01DX005 (ip), vehicle: saline with Tween-80 100 % of control | dose: 100.0 mg/kg/injection, schedule: Q01DX005 (ip), vehicle: saline with Tween-80 101 % of control | dose: 200.0 mg/kg/injection, schedule: Q01DX005 (ip), vehicle: saline with Tween-80 105 % of control

CC1=CC(=O)c2c(O)c3c(c(O)c2C1=O)C1C(O)C(C3=O)C23C(=O)c4c(O)c(C)cc(O)c4C(O)=C2C(=O)CC(O)C13 (centres undefined)
inactive: dose: 1.5 mg/kg/injection, schedule: Q01DX005 (ip), vehicle: Klucel (hydroxypropylcellulose) (HPC) 101 % of control | dose: 3.0 mg/kg/injection, schedule: Q01DX005 (ip), vehicle: Klucel (hydroxypropylcellulose) (HPC) 115 % of control | dose: 6.0 mg/kg/injection, schedule: Q01DX005 (ip), vehicle: Klucel (hydroxypropylcellulose) (HPC) 115 % of control | dose: 12.0 mg/kg/injection, schedule: Q01DX005 (ip), vehicle: Klucel (hydroxypropylcellulose) (HPC) 113 % of control | [2] 108 % of control | [3] 105 % of control | [6] 105 % of control

FC(F)(F)SN1CN(SC(F)(F)F)CN(SC(F)(F)F)CN(SC(F)(F)F)CN(SC(F)(F)F)C1
inactive: [7] 92 % of control | [8] 92 % of control

CC(Cl)C(Cl)(Cl)/C=C\[N+](=O)[O-] (centres undefined)
inactive: dose: 50.0 mg/kg/injection, schedule: Q01DX009 (ip), vehicle: saline 103 % of control | [9] 102 % of control | [10] 98 % of control

CC(=O)OC1COC(NC(=O)N(CCCl)N=O)C(OC(C)=O)C1OC(C)=O (centres undefined)
active: dose: 6.0 mg/kg/injection, schedule: Q01DX009 (ip), vehicle: saline with Tween-80 151 % of control | dose: 12.0 mg/kg/injection, schedule: Q01DX009 (ip), vehicle: saline with Tween-80 161 % of control | dose: 24.0 mg/kg/injection, schedule: Q01DX009 (ip), vehicle: saline with Tween-80 272 % of control
inactive: dose: 1.5 mg/kg/injection, schedule: Q01DX009 (ip), vehicle: saline with Tween-80 111 % of control | dose: 3.0 mg/kg/injection, schedule: Q01DX009 (ip), vehicle: saline with Tween-80 121 % of control | dose: 48.0 mg/kg/injection, schedule: Q01DX009 (ip), vehicle: saline with Tween-80 114 % of control

Cc1cccc2c(=O)n3c(cc12)-c1[nH]c2ccccc2c1CC3
inactive: dose: 60.0 mg/kg/injection, schedule: Q01DX005 (ip), vehicle: Klucel (hydroxypropylcellulose) (HPC) 103 % of control | dose: 120.0 mg/kg/injection, schedule: Q01DX005 (ip), vehicle: Klucel (hydroxypropylcellulose) (HPC) 97 % of control | dose: 240.0 mg/kg/injection, schedule: Q01DX005 (ip), vehicle: Klucel (hydroxypropylcellulose) (HPC) 96 % of control

From PubChem BioAssay AID330 (DTP/NCI, 2004)
